Measurements taken from patent US10336675B2, “Biaromatic vitamin D analogs” (DSM IP ASSETS B.V., priority 2015, dated 2019).
pEC50: −log10 of the molar value.

What follows are compounds tested against T1, human vitamin D receptor (VDR) (Homo sapiens, UniProt P11473) (assay: Human vitamin D receptor (VDR) agonist activity: GAL4-VDR LBD luciferase transactivation assay in transiently transfected HEK293 cells). Conditions: VDR LBD-GAL4 DBD fusion, pFR-Luc luciferase reporter, 16 h incubation, read-out: Effective concentrations of half maximal activation (EC50).
T1 construct: expressed in transfected cells; host or cells: HEK293 cells (ATCC), transient transfection with a GATEWAY-compatible pCMV-BD vector
T1 sequence (P11473 127-423 limits assumed): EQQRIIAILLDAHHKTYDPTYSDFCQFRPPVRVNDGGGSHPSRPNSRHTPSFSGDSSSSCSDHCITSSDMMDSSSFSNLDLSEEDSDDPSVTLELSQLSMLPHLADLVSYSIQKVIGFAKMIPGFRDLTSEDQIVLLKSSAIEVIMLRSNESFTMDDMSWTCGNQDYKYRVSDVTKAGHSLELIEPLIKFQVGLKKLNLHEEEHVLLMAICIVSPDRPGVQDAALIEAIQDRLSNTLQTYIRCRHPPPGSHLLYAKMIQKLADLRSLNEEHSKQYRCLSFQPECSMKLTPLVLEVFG
Format: cell-based
Text: By way of example, the human vitamin D receptor (VDR) agonist activity of the claimed compounds can be tested using a cell based transactivation assay in an eukaryotic cell line. After a co-transfection, using a reporter plasmid construct and a hybrid receptor construct containing the ligand-binding domain of the human VDR linked to the DNA-binding domain of the yeast transcription factor GAL4, the cultured cells were stimulated by the VDR agonists. The hybrid VDR-GAL4 receptor binds the VDR agonists and transactivates luciferase reporter expression through the GAL4-response elements in the promoter of the luciferase gene (reporter construct). The VDR agonist binding and transactivation is determined by measuring the luciferase luminescence activity. The effective concentration of half maximal activation (EC50) was determined for the VDR agonists by means of dose-response experiments. The details of the protocol method of this test according to the invention are described in the example section.
Testing of the Human Vitamin D Receptor (VDR) Agonist Activity of the Compounds
The transient transfections were performed in HEK293 cells (ATCC, Molsheim, France) grown in minimum essential medium (Eagle) with Earle's balanced salt solution without L-glutamine and supplemented with 10% fetal bovine serum (Sigma-Aldrich Corp., St. Gallen, Switzerland), 2 mM glutamax (Life Technologies AG, Basel, Switzerland), 0.1 mM non-essential amino acids (Life Technologies), and 1 mM sodium pyruvate (Life Technologies) at 37° C. in 5% CO2. For transfection, 7.5×10^4 cells were plated per well (80 μl) in white 96-well cell culture plates with clear bottom (Corning, Basel, Switzerland) in minimum essential medium (Eagle) with Earle's balanced salt solution without L-glutamine and without phenol red supplemented with 10% charcoal-treated fetal bovine serum (HyClone Laboratories, Inc., Logan, Utah, USA), 2 mM glutamax, 0.1 mM non-essential amino acids, and 1 mM sodium pyruvate. The cells were transiently transfected before stimulation the next day at >80% confluence by polyethylene-imine-based transfection. Compound stocks were prepared in DMSO, pre-diluted in PBS (0.45% final DMSO concentration), and added in the respective dilution 5 h after the addition of the transfection mixture onto the cells. The cells were again incubated for additional 16 h before firefly and renilla luciferases activity was measured sequentially in the same cell extract using buffers according to established protocols (Promega AG, Dübendorf, Switzerland). Transfection efficiency was controlled to the pRL-TK renilla luciferase reporter expression.

| SMILES | pEC50 |
| --- | --- |
| CC/C(=C\C=C\C(O)(C(F)(F)F)C(F)(F)F)c1cccc(CCc2ccc(C(O)CCO)cc2)c1 (racemic) [I-b, 1-(4-(3-((3E,5E)-8,8,8-trifluoro-7-hydroxy-7-(trifluoromethyl)octa-3,5-dien-3-yl)phenethyl)phenyl)propane-1,3-diol] | 7.92 |
| CC/C(=C\C=C\C(O)(CC)CC)c1cccc(CCc2ccc(C(O)CCO)cc2)c1 (racemic) [I-c, 1-(4-(3-((3E,5E)-7-ethyl-7-hydroxynona-3,5-dien-3-yl)phenethyl)phenyl)propane-1,3-diol] | 7.89 |
| CC/C(=C\C=C\C(O)(CC)CC)c1cccc(CCc2ccc(C(O)CC(C)O)cc2)c1 (stereo not shown) [I-a, 1-(4-(3-((3E,5E)-7-ethyl-7-hydroxynona-3,5-dien-3-yl)phenethyl)phenyl)butane-1,3-diol] | 8.40 |
| CC/C(=C\C=C\C(O)(CC)CC)c1cccc(CCc2ccc(C(O)C(C)CO)cc2)c1 (stereo not shown) [I-d, 1-(4-(3-((3E,5E)-7-ethyl-7-hydroxynona-3,5-dien-3-yl)phenethyl)phenyl)-2-methylpropane-1,3-diol] | 7.55 |
| CC/C(=C\C=C\C(O)(CC)CC)c1cccc(CCc2ccc(C(O)C(C)C(C)O)cc2)c1 (stereo not shown) [I-f, 1-(4-{2-[3-((1E,3E)-1,5-Diethyl-5-hydroxy-hepta-1,3-dienyl)-phenyl]-ethyl}-phenyl)-2-methylbutane-1,3-diol] | 7.47 |

Second part, the compound after the results:

| pEC50 | SMILES |
| --- | --- |
| 6.95 | CC/C(=C\C=C\C(O)(CC)CC)c1cccc(CCc2ccc(C(O)C(CO)CCCCO)cc2)c1 (stereo not shown) [Comp1, reference compound] |
| 7.52 | CC/C(=C\C=C\C(O)(CC)CC)c1cccc(CCc2ccc(C(O)C(CO)CCCO)cc2)c1 (stereo not shown) [I-e, 1-(4-(3-((3E,5E)-7-ethyl-7-hydroxynona-3,5-dien-3-yl)phenethyl)phenyl)-2-(hydroxymethyl)pentane-1,5-diol] |
